Reference: ChEMBL document CHEMBL1667732, “The diarylheptanoid (+)-aR,11S-myricanol and two flavones from bayberry (Myrica cerifera) destabilize the microtubule-associated protein tau” (J Nat Prod, 2011)
Activity calls are given as the source filed them. The rule behind the calls is not given here.

Columns and labels:
[1] = Cytotoxicity against human HeLaC3 cells by LDH release assay; type: cell-based; conditions: hela c3
[2] = tested on: HeLa-C3; assay: Destabilization of microtubule-associated protein tau protein in human HeLa-C3 cells assessed as reduction in tau protein level at 50 to 250 uM; type: cell-based
[3] = tested on: IMR-32; assay: Destabilization of microtubule-associated protein tau protein in human IMR32 cells assessed as reduction in tau protein level at 50 to 250 uM; type: cell-based
[4] = Cytotoxicity against human IMR32 cells by LDH release assay; type: cell-based; conditions: imr-32
[5] = species on record: Mus musculus; assay: Destabilization of microtubule-associated protein tau protein in mouse brain slice assessed as reduction in tau protein level at 50 to 250 uM; type: tissue-based

Structure (SMILES): COc1c2cc(c(O)c1OC)CCCC[C@H](O)CCc1ccc(O)c-2c1
- Activity [1]: Non-toxic
- Activity [2]: Active
- Activity [3]: Active
- Activity [4]: Non-toxic
- Activity [5]: Active
